For assay [1], the system named is mice. As to the kind of experiment: Muscular relaxing effect, Righting Reflex Test (R.r), oral, mice. The format is in vivo, dd Male mice. Particulars: Mus musculus; for responders at 500 mg/kg: read-out: Inhibition percent of the central muscular relaxing effect, R.r (Righting Reflex Test). How it is done: (§1) dd Male mice weighing 18 to 22 g, one group consisting of 10 animals, were orally given the compounds (I) to (V) as indicated below suspended in 0.2% carboxymethylcellulose solution in a dose of 0.25ml/10g-body weight. Mephenesin was used as active placebo.

Assay [2] concerns mice. As to the kind of experiment: Muscular relaxing effect, Rotarod Method (R.R), oral, mice. Format: in vivo, dd Male mice. Particulars: Mus musculus; for responders at 500 mg/kg: read-out: Inhibition percent of the central muscular relaxing effect, R.R (Rotarod Method). How it is done:
as §1
Mice were placed on Rotar Load (made by Natsume Seisakusho Co., Ltd.) having a diameter of 3 cm rotating at a speed of 10 rpm and falling (occurring within 3 minutes) was observed.
For orientation: Falling from the rotarod earlier than controls is read as motor impairment.

In assay [3] the test system is mice. As to the kind of experiment: Muscular relaxing effect, Inclined Plane Test (I.P), oral, mice. Format: in vivo, dd Male mice. As to conditions: Mus musculus; for responders at 500 mg/kg: read-out: Inhibition percent of the central muscular relaxing effect, I.P (Inclined Plane Test). How it is done: as §1
Mice were placed on veneer inclined at an angle of 30° and on wire-netting inclined at an angle of 60° of which one division is 5 mm square, and mice sliding down were observed as positive, in comparison with normal behavior.

The test system of assay [4] is mice. As to the kind of experiment: Muscular relaxing effect, Traction Test (T.T), oral, mice. As to conditions: Mus musculus; for responders at 500 mg/kg: read-out: Inhibition percent of the central muscular relaxing effect, T.T (Traction Test). The format is in vivo, dd Male mice. How it is done:
as §1

Assay [5] has as its system mice. The assay is described as follows: Muscular relaxing effect, Pinna Reflex Test (P.r), oral, mice. The format is in vivo, dd Male mice. As to conditions: Mus musculus; for responders at 500 mg/kg: read-out: Inhibition percent of the central muscular relaxing effect, P.r (Pinna Reflex Test). As for the experimental part: as §1
Pinna reflex was observed by using mandolin wire for 1/4 injection syringe.

Assay [6] has as its system mice. The assay is described as follows: Muscular relaxing effect, Corneal Reflex Test (C.r), oral, mice. Format: in vivo, dd Male mice. Particulars: Mus musculus; for responders at 500 mg/kg: read-out: Inhibition percent of the central muscular relaxing effect, C.r (Corneal Reflex Test). How it is done:
as §1
Corneal reflex was observed by using mandolin wire for 1/4 injection syringe.

Assay [7] has as its system carrageenan-induced edema in rats. The assay is described as follows: Antiinflammatory effect on carrageenan-induced edema. Format: in vivo, Wistar male rats. As for the experimental part: […] One hour after the administration of the test compounds, the hind paw was given a subcutaneous injection of 0.05ml of 0.5% carrageenan saline solution, and volume of the hind paw was measured at 1, 2, 3, 4, 5 and 6 hours after the injection of carrageenan by a volume differential meter. Inhibitory percent was calculated based on the swelling in the control. Phenybutazone was used as active placebo.
A general note: In the carrageenan paw model, swelling and tenderness develop within hours.

[8] abbreviates: Table 1, oral, mice, maximum response 15-180 min, Litchfield Wilcoxon.

`C=CCOc1ccccc1CC1CNC(=O)O1` (stereo not shown) [Compound X, 5-(o-allyloxybenzyl)-2-oxazolidone]: the responders at 500 mg/kg turned out to be 30% in the assay with mice [1] (Table 2, 500 mg/kg, oral, mice); 80% with mice [2] (Table 2, 500 mg/kg, oral, mice); 40% in the assay with mice [3] (Table 2, 500 mg/kg, oral, mice); 40% in the assay on mice [4] (Table 2, 500 mg/kg, oral, mice); 40% with mice [5] (Table 2, 500 mg/kg, oral, mice); 0% with mice [6] (Table 2, 500 mg/kg, oral, mice).

As to `O=C1NCC(Cc2ccccc2-c2ccccc2)O1` (stereo not shown) [Compound XIV, 5-(o-phenylbenzyl)-2-oxazolidone], in assay [7] (Table 6, 100 mg/kg oral), the “Inhibitory per cent, carrageenan-induced edema, 1 hr” value (“Inhibitory per cent … 1 hr” for short) is on record as 12.9 per cent; the “Inhibitory per cent, carrageenan-induced edema, 2 hrs.” value (shortened to “Inhibitory per cent … 2 hrs.”) came to 35.2 per cent; the “Inhibitory per cent, carrageenan-induced edema, 3 hrs.” value (from here on “Inhibitory per cent … 3 hrs.”) was 40.0 per cent; the “Inhibitory per cent, carrageenan-induced edema, 4 hrs.” value (from here on “Inhibitory per cent … 4 hrs.”) is reported as 15.6 per cent. Also, the “Inhibitory per cent, carrageenan-induced edema, 5 hrs.” value (“Inhibitory per cent … 5 hrs.” for short) in assay [7] (Table 6, 100 mg/kg oral) turned out to be 9.1 per cent.

Consider `O=C1NCC(Cc2ccccc2Oc2ccccc2)O1` (stereo not shown) [Compound XV, 5-(o-phenoxybenzyl)-2-oxazolidone], for which, in assay [7] (Table 6, 100 mg/kg oral), the “Inhibitory per cent … 1 hr” value is on record as 59.5 per cent; the “Inhibitory per cent … 2 hrs.” value turned out to be 57.1 per cent; the “Inhibitory per cent … 3 hrs.” value is 59.9 per cent; the “Inhibitory per cent … 4 hrs.” value is given as 30.8 per cent. Further, in assay [7] (Table 6, 100 mg/kg oral), the “Inhibitory per cent … 5 hrs.” value stood at 26.1 per cent and the “Inhibitory per cent, carrageenan-induced edema, 6 hrs.” value (“Inhibitory per cent … 6 hrs.” for short) is given as 23.2 per cent.

For the compound `NC(=O)OCCCc1ccccc1` [GP, γ-phenylpropylcarbamate, reference compound], the responders at 500 mg/kg in the assay on mice [1] (po) was determined as 0%; with mice [2] (po), 60%; in the assay with mice [3] (po) it was 30%; with mice [4] (po), 40%; in the assay on mice [5] (po), 10%; in the assay on mice [6] (po), 0%.

The term ED50 denotes the midpoint of the dose-response relation. As for `Cc1ccccc1OCC(O)CO` (stereo not shown) [Mephenesin, reference compound], the 50% effective dose (ED50) in the assay with mice [1] (setting [8]) stood at 640 mg/kg; in the assay with mice [2] (setting [8]), 268 mg/kg; with mice [3] (setting [8]), 470 mg/kg; in the assay with mice [4] (setting [8]) it was 460 mg/kg; in the assay on mice [5] (setting [8]), 420 mg/kg; with mice [6] (setting [8]), 680 mg/kg. For the same compound, the responders at 500 mg/kg with mice [1] (Table 2, 500 mg/kg, oral, mice) is 20%; in the assay with mice [2] (Table 2, 500 mg/kg, oral, mice) it was 80%; in the assay with mice [3] (Table 2, 500 mg/kg, oral, mice), 60%; in the assay on mice [4] (Table 2, 500 mg/kg, oral, mice) it was 40%; in the assay with mice [5] (Table 2, 500 mg/kg, oral, mice) it was 20%; in the assay on mice [6] (Table 2, 500 mg/kg, oral, mice) it was 0%.

For `CCCCC1C(=O)N(c2ccccc2)N(c2ccccc2)C1=O` [Phenylbutazone, reference compound], in assay [7] (Table 5, 200 mg/kg oral), the “Inhibitory per cent … 3 hrs.” value came out at 76.6 per cent and the “Inhibitory per cent … 6 hrs.” value came to 45.1 per cent. In assay [7] (Table 6, 100 mg/kg oral), the “Inhibitory per cent … 1 hr” value was found to be 59.1 per cent; the “Inhibitory per cent … 2 hrs.” value was determined as 54.6 per cent; the “Inhibitory per cent … 3 hrs.” value came out at 59.7 per cent; the “Inhibitory per cent … 4 hrs.” value is listed as 68.2 per cent. Moreover, in assay [7] (Table 6, 100 mg/kg oral), the “Inhibitory per cent … 5 hrs.” value is listed as 63.4 per cent and the “Inhibitory per cent … 6 hrs.” value was 52.6 per cent.

For the compound `CCc1ccc(CC2CNC(=O)O2)cc1` (stereo not shown) [VII, 5-(p-ethylbenzyl)-2-oxazolidone], the responders at 500 mg/kg with mice [1] (Table 2, 500 mg/kg, oral, mice) was found to be 0%; with mice [2] (Table 2, 500 mg/kg, oral, mice) it was 80%; in the assay with mice [3] (Table 2, 500 mg/kg, oral, mice) it was 40%; in the assay with mice [4] (Table 2, 500 mg/kg, oral, mice), 40%; in the assay with mice [5] (Table 2, 500 mg/kg, oral, mice), 0%; in the assay with mice [6] (Table 2, 500 mg/kg, oral, mice), 0%.

Values taken from US4062862A, “5-Benzyl-2-oxazolidone derivatives and a process for producing the same” (Nippon Chemiphar Co., Ltd., priority 1975, dated 1977).
